Each structure is given as a SMILES string. Bounds are passed on as bounds.

One data set deals with Aβ42. Kind of data set: Chronic treatment of APP23 mice: Triton TX-100 soluble Aβ42 in brain. It counts as in vivo, mouse. The method, then: (§1) Frozen mouse forebrains were weighed and homogenized in 9 volumes (w/v) of ice-cold TBS-Complete (20 mM Tris-HCl pH 7.4, 137 mM NaCl, 1× Complete [Protease Inhibitor Cocktail Tablets: 1 836 145, Roche Diagnostics GmbH, Penzberg, Germany]) by sonication (90% duty cycle, output control 5, 40-55 pulses, [Sonifier 450, Branson]). After homogenization several 50 μl aliquots were prepared for analysis and were stored at −80° C.
Human Aβ40 and 42 in mice was determined with the Meso Scale Discovery (MSD) 96-well MULTI-ARRAY human/rodent (6E10) Aβ40/42 Assay (Meso Scale Discovery, Rockville, Md., USA) as described in [RD-2010-00284]. The assay was done according to the manufacturer's instructions except for the calibration curve and the sample preparations. […]
The calibration curve was prepared in a corresponding dilution of 1% Blocker A solution spiked with synthetic Aβ1-40 peptide (1.56-100 pg/ml) except for non-transgenic mouse brain samples: In this case, the calibration curve was prepared in a correspondingly diluted APP knockout mouse forebrain spiked with synthetic Aβ1-40 peptide (1.56-100 pg/ml). […] The relative units for samples and standards were imported into SOFTmax PRO 4.0 for calculation of standard curves and quantification of samples. […]

Data set [1] is described as follows: Off-target binding or activity.
The next data set deals with Aβ40. The data set can be described thus: Chronic treatment of APP23 mice: formic acid soluble Aβ40 in forebrain. It counts as in vivo, mouse. The settings on record: high Compound 1 treatment group. The method, then: as §1
Fifty microliter of forebrain homogenate was mixed with 116.6 μl 100% formic acid, resulting in a final formic acid concentration of 70%. Samples were stored on ice and vortexed every 5 minutes. For neutralization, 50 μl of the mixture were pipetted into a new tube, and 950 μl of 1 M Tris base, containing 1× Complete Protease inhibitor, was added. Tubes were stored at room temperature overnight and then centrifuged for 15 minutes at 14000 rpm in an Eppendorf Microzentrifuge at 4° C. From the top layer, 100 μl are removed and mixed with 100 μl of 3% Blocker A solution (part of the MesoScale assay kit). This sample was either directly applied to the assay plate (dilution 1:1332) or further diluted in 1% Blocker A solution.
Amyloid-β42 increased more than Aβ40 (Aβ42/40 ratio increased by 55% in the vehicle group), in agreement with its higher aggregation propensity.

A short description of data set [2]: First-in-human study: safety and tolerability. It counts as in vivo. The settings on record: healthy elderly subjects ≥60 years. An excerpt: The purpose of this study was to determine the single and multiple maximum tolerated dose of Compound 1 and to assess the pharmacokinetic/pharmacodynamic (PK/PD) relationship using Aβ in CSF as primary PD biomarker.
Data set [3] relates to Aβ40 levels in APOE4-TR mouse brain. The data set can be described thus: Acute PK/PD dose-response study in APOE4-TR mice: Aβ40 in forebrain (MSD assay). It counts as in vivo. The following applies: for Mini AUEC (brain Aβ40): 4 h and 24 h; for Aβ40 reduction, range over doses: 3, 10 and 30 μmol/kg. The method, then:
Male and female transgenic homozygous APOE4-TR (B6. 129P2-Apoe^tm3(APOE*4)Mae N8, Taconic, Model 001549, 3-5 months old, n=48) were obtained from Taconic.
Compound 1 was formulated as a suspension. Vehicle or compound was given by oral administration in a volume of 10 ml/kg once. Vehicle: 0.1% Tween80 in 0.5% Methylcellulose in water. […]
as §1
Endogenous Aβ40 in mice was determined with the Meso Scale Discovery (MSD) 96-well MULTI-ARRAY human/rodent (4G8) Aβ40 Ultrasensitive Assay (#K110FTE-3, Meso Scale Discovery, Gaithersburg, USA). The assay was performed according to the manufacturer's instructions except for the calibration curve and the sample preparations. TritonX-100 (TX-100) soluble Aβ40 was extracted from forebrain with 1% TX-100 using a 50 μl aliquot of each 1:10 forebrain homogenate, mixed with 50 μl 2% TX-100 in TBS complete (20 mM Tris-HCl pH 7.4, 137 mM NaCl, 1× Complete [Protease Inhibitor Cocktail Tablets: 1 836 145, Roche Diagnostics GmbH, Penzberg Germany]) to reach a final concentration of 1% TX-100 and a 1:20 forebrain dilution. The samples were incubated for 15 min on ice and vortexed every 5 min. The samples were ultra-centrifuged (100000×g, 4° C., 15 min) and 50 μl of the clear supernatants were transferred to fresh tubes. For the Aβ40 assay the supernatants were further diluted 1:5 in 3% Blocker A solution (from kit) to a final forebrain dilution of 1:100 and applied to the plate.
The calibration curve was prepared in a corresponding dilution of 1% Blocker A solution spiked with synthetic Aβ1-40 peptide (1.56-100 pg/ml) except for non-transgenic mouse brain samples: In this case, the calibration curve was prepared in a correspondingly diluted APP knockout mouse forebrain spiked with synthetic Aβ1-40 peptide (1.56-100 pg/ml). For all samples and standards 25 μl were applied per well. For each determination duplicate wells were done. The mean values from the duplicate wells were used for calculations.

For `C[C@@]1(c2nc(NC(=O)c3ncc(C(F)(F)F)cc3Cl)ccc2F)CO[C@@](C)(C(F)(F)F)C(N)=N1` [Compound 1, N-(6-((3R,6R)-5-amino-3,6-dimethyl-6-(trifluoromethyl)-3,6-dihydro-2H-1,4-oxazin-3-yl)-5-fluoropyridin-2-yl)-3-chloro-5-(trifluoromethyl)picolinamide], the “Aβ42 change vs vehicle (TX-100 soluble)” value with Aβ42 (0.03 g/kg vs vehicle) was −20.1%; with Aβ42 (0.3 g/kg vs vehicle) it was −77.3%. Besides, the “off-target binding or activity” value in data set [1] is listed as “no relevant off-target binding or activity”. For the same compound, the “reduction of deposited Aβ40 and 42 vs vehicle” value in the data set with Aβ40 is “around 80%”. Further, the safety and tolerability entry in data set [2] (300 mg QD over two weeks) is “safe and tolerated”; in data set [2] (750 mg single dose), “safe and tolerated”. Moreover, the “% reduction vs vehicle (brain Aβ40)” value in data set [3] (3 μmol/kg acute, 4 h) worked out at 43%; in data set [3] (3 μmol/kg acute, 24 h), 20%; in data set [3] (10 μmol/kg acute, 4 h), 63%; in data set [3] (10 μmol/kg acute, 24 h), 31%; in data set [3] (30 μmol/kg acute, 4 h) it was 77%; in data set [3] (30 μmol/kg acute, 24 h), 66%. For the same compound, the “Average Aβ40 brain ± SD” value is given as 0.114 ± 0.024 pmol/g in data set [3] (3 μmol/kg acute, 4 h); 0.160 ± 0.033 pmol/g in data set [3] (3 μmol/kg acute, 24 h); 0.074 ± 0.014 pmol/g in data set [3] (10 μmol/kg acute, 4 h); 0.139 ± 0.041 pmol/g in data set [3] (10 μmol/kg acute, 24 h); 0.046 ± 0.006 pmol/g in data set [3] (30 μmol/kg acute, 4 h); 0.068 ± 0.021 pmol/g in data set [3] (30 μmol/kg acute, 24 h). The entries for the “Mini AUEC (brain Aβ40)” value in data set [3] (3 μmol/kg acute), in data set [3] (10 μmol/kg acute) and in data set [3] (30 μmol/kg acute) were 32%, 47% and 72%, respectively. Also, the “Aβ40 reduction, range over doses” value was 43-77% in data set [3] (4 h) and 20-66% in data set [3] (24 h). The Emax in data set [3] (Mus musculus, 30 μmol/kg acute, read-out: maximal effect on Aβ reduction in the brain) was more than 70%.

The values are drawn from patent publication US10722518B2, “Oxazine derivative for use in the treatment or prevention of cerebral amyloid angiopathy” (Novartis AG, priority 2016, dated 2020).
